We go through one compound from publication PMC5669199, “CM352 Reduces Brain Damage and Improves Functional Recovery in a Rat Model of Intracerebral Hemorrhage” (Journal of the American Heart Association: Cardiovascular …, 2017).

The nature of data set [1]: Prothrombin time in plasma after ICH. Format: in vivo, rat. As to conditions: percentage of the standard value, n=3. The method, then:
(§1) Prothrombin time (PT) and activated partial thromboplastin time (aPTT) were measured with STA‐Neoplastin R and PTT reagents (STA‐Compact, Stago, Barcelona, Spain). PT results were expressed as percentage of the standard value, and aPTT results were expressed in seconds.

The subject of the next data set is cellular fibronectin. Nature of the data set: Plasma cellular fibronectin ELISA after ICH. Format: in vivo, rat. Particulars: 1 mg/kg iv after ICH; data not shown. The protocol: Blood samples (0.5 mL) were drawn from the tail vein before surgery, immediately after surgery, and at 1 hour, 3 hours, 24 hours, and 14 days. Citrate or EDTA plasma was obtained by centrifugation, and samples were stored at −80°C. Enzyme‐linked immunosorbent assay was used to measure interleukin‐6 (IL‐6, ref. KRC0061, Life Technologies, Thermo Fisher Scientific, Waltham, MA), cellular fibronectin (ref. MBS007311, MyBioSource, San Diego, CA), and thrombin‐antithrombin complex (Enzygnost TAT, ref. OWMG15, Siemens Healthcare, Erlangen, Germany) in plasma, as biomarkers of inflammation, cellular damage, and hypercoagulability, respectively. The intra‐assay and interassay coefficients of variation for all molecular markers were <10%.
(In general: ELISA stands for enzyme-linked immunosorbent assay.)

The test system of data set [2] is wide panel of metalloenzymes, including cathepsins, caspases, kalikreins, and neutrophil proteases. Further details: method as in PMID 25686022. Particulars: cited from earlier work.
The target of another data set is T1, MMP‐7 (Homo sapiens, UniProt P09237).
T1 construct: GenScript (contract testing)
T1 sequence (P09237 95-267): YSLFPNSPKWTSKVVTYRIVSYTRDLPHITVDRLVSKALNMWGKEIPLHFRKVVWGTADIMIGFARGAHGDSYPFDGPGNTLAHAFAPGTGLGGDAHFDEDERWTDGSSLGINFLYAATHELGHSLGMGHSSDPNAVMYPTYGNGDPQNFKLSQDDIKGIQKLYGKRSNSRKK
Kind of data set: MMP enzyme activity assay. Format: biochemical. Particulars: read-out: MMP Inhibitory Activity (IC50), MMP‐7. The protocol:
(§2) Protease stock solutions (10 mmol/L) were diluted with assay buffer to make final test solutions containing no more than 2.0% DMSO. The samples were dispensed into plates; substrate was added and read with PHERAstar PLUS (BMG Labtech, Ortenberg, Germany) plate reader.

The next data set concerns the target T2, MMP‐9 (Homo sapiens, UniProt P14780).
T2 construct: GenScript (contract testing)
Nature of the data set: MMP enzyme activity assay. In kind it is biochemical. Particulars: read-out: MMP Inhibitory Activity (IC50), MMP‐9. The method, then: as §2

A further data set addresses T3, MMP‐2 (Homo sapiens, UniProt P08253).
T3 construct: GenScript (contract testing)
T3 sequence (P08253 110-660): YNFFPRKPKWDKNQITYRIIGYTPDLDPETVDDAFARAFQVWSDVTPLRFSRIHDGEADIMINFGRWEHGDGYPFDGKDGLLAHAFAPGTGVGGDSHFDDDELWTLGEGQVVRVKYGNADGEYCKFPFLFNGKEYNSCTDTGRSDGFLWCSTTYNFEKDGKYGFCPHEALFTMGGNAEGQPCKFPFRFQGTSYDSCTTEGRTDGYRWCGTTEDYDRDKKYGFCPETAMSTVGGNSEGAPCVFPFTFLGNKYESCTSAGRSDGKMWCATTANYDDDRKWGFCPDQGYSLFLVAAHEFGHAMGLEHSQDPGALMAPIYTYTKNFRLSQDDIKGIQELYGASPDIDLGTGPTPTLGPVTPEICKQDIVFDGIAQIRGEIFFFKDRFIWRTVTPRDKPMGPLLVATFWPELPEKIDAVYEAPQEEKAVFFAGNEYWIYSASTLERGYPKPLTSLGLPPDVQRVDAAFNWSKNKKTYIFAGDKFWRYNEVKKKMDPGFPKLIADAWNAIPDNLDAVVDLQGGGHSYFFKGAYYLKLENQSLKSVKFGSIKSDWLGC
Nature of the data set: MMP enzyme activity assay. Particulars: read-out: MMP Inhibitory Activity (IC50), MMP‐2. Format: biochemical. The protocol: as §2

The subject of data set [3] is tissue‐type plasminogen activator–induced fibrinolysis in mouse whole blood. Nature of the data set: Whole blood clot formation and lysis assay (ROTEM thromboelastometry), mouse blood. Format: biochemical. Particulars: tPA‐induced fibrinolysis, read-out: effective concentration to delay lysis time by 50%. The protocol:
Citrated blood samples from (n=4) rats (Sprague Dawley) and (n=16) mice ([…], Harlan Iberica) were assayed with a ROTEM analyzer (Pentapharm GmbH, Munich, Germany) as previously described.20 In a prewarmed cuvette and holder we pipetted 1 μL tissue-type plasminogen activator (150 000 U/mL), 20 μL Start-tem reagent (Pentapharm GmbH), 20 μL In-tem reagent (Pentapharm GmbH), 3 μL DMSO (SIGMA) or test compounds in DMSO, and 300 μL prewarmed citrated blood. The cup holder containing the sample mixture was placed immediately on the appropriate channel. Measurements were recorded for 60 minutes to allow clot formation and lysis, and results are expressed as effective concentration to delay lysis time by 50%.

The test system of data set [4] is mouse model of tail bleeding. Details: method as in PMID 25686022. As to conditions: CM352 0.01 mg/kg; cited from earlier work.
A short description of data set [5]: Activated partial thromboplastin time in plasma after ICH. In kind it is in vivo, rat. As to conditions: n=3. The method, then: as §1

T2 sequence (P14780 94-707, species assumed): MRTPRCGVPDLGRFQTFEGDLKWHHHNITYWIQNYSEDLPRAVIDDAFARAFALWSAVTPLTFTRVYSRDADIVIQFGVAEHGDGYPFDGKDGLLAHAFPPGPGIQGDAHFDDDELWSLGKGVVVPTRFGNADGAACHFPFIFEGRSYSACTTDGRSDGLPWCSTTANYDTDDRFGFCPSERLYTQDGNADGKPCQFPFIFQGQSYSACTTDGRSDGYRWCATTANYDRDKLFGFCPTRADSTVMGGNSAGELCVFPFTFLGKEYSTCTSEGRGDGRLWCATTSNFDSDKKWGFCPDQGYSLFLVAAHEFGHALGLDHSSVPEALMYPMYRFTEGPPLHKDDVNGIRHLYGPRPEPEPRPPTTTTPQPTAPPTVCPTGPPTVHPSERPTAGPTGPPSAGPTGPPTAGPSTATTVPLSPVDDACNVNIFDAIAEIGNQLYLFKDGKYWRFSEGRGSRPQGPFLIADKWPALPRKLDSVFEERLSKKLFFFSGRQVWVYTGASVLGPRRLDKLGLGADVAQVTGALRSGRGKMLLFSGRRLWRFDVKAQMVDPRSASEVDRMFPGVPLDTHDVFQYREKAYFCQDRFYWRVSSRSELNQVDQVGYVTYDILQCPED

Usually IC50 stands for the concentration that inhibits the measured activity by half. As for `CNC(=O)c1ccc(Oc2ccc(S(=O)(=O)[C@]3(C(=O)NO)CCC4(CCNCC4)C3)cc2)cc1` [CM352, 4‐[4‐[[(3R)‐3‐(Hydroxycarbamoyl)‐8‐azaspiro[4.5]decan‐3‐yl]sulfonyl]phenoxy]‐N‐methylbenzamide], the PT came out at 62.0±2.6% in data set [1] (3 H), 63.7±4.0% in data set [1] (5 H), 65.1±7.6% in data set [1] (24 H) and 62.7±5.1% in data set [1] (Basal). Also, the “cellular fibronectin levels versus control” value in the data set with cellular fibronectin is recorded as “no differences”. For the same compound, in data set [2], the “off‐target effect on metalloenzyme panel” value is “no significant effect”. Also, the IC50 at MMP‐7 was found to be 16000 nM; on MMP‐9, 10 nM; at MMP‐2 it was 8.4 nM. For the same compound, the EC50 in [3] is 200 nM. In addition, the antihemorrhagic efficiency result in data set [4] is recorded as “more potent agent”. Further, the aPTT came to 21.7 ± 4.5 s in data set [5] (3 H), 21.7 ± 4.0 s in data set [5] (5 H), 21.7 ± 2.5 s in [5] (24 H) and 21.0 ± 4.0 s in [5] (Basal).
